From ChEMBL document CHEMBL5038581, “Design, synthesis, and biological evaluation of novel dual inhibitors targeting lysine specific demethylase 1 (LSD1) and histone deacetylases (HDAC) for treatment of gastric cancer” (Eur J Med Chem, 2021)

What was measured:
AGS = assay: cells; conditions: Homo sapiens, 72 h
BGC-823 = assay: cells; conditions: Homo sapiens, BGC-823, 72 h
MKN-1 = assay: cells; conditions: Homo sapiens, MKN-1, 72 h
MKN-45 = assay: cells; conditions: Homo sapiens, MKN-45, 72 h
NCI-N87 = assay: cells; conditions: Homo sapiens, NCI-N87, 72 h
SNU1 = assay: cells; conditions: Homo sapiens, SNU1, 72 h
[1] = target: T1, Lysine-specific histone demethylase 1A (Homo sapiens, UniProt O60341); assay: Inhibition of recombinant LSD1 (157 to 852 residues) (unknown origin) expressed in Escherichia coli BL21 (DE) at 10 uM using H3K4me2 as substrate by amplex red assay relative to control
HCT-116 = assay: cells; conditions: Homo sapiens, HCT-116, 72 h
MGC-803 [2] = assay: cells; conditions: Homo sapiens, MGC-803, 72 h
CYP1A2 = target: T2, CYP1A2 (Homo sapiens, UniProt P05177); assay: in vitro; conditions: probe phenacetin
T2 sequence (P05177 whole entry): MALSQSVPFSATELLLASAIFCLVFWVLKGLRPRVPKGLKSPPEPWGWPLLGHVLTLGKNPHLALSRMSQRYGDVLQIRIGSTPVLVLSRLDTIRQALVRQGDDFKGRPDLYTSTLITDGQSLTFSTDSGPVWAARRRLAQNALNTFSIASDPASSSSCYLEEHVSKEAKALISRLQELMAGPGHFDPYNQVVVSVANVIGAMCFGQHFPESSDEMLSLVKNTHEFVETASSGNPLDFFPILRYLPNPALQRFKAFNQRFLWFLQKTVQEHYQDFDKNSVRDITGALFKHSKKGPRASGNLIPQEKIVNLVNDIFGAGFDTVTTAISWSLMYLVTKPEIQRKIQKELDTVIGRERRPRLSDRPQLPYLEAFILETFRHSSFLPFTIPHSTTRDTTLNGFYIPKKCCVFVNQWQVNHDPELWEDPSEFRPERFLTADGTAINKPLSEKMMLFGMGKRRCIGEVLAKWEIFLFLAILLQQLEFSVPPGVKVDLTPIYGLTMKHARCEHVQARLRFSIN

[3] = target: T1, Lysine-specific histone demethylase 1A; assay: Inhibition of recombinant LSD1 (157 to 852 residues) (unknown origin) expressed in Escherichia coli BL21 (DE) using H3K4me2 as substrate by amplex red assay
Histone deacetylase 1 = Histone deacetylase 1 (Homo sapiens, UniProt Q13547); assay: Inhibition of HDAC1 (unknown origin) using Ac-peptide as substrate preincubated for 15 mins followed by substrate addition by fluorescence assay
Chain of Histone deacetylase 1 (Q13547 whole entry): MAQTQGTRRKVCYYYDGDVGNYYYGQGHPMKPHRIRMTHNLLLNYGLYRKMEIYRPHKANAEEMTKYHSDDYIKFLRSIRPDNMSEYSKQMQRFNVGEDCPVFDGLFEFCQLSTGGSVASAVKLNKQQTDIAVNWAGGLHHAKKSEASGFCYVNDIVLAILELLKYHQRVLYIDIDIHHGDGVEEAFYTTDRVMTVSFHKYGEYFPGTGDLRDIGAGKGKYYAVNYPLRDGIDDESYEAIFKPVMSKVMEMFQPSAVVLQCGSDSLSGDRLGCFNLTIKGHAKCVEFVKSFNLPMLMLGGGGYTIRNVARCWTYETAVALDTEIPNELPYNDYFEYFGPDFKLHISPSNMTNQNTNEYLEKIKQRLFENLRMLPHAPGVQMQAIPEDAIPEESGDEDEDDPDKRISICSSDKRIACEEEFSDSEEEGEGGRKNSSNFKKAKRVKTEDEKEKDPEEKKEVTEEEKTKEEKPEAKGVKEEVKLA

Histone deacetylase 5 = Histone deacetylase 5 (Homo sapiens, UniProt Q9UQL6); assay: Inhibition of HDAC5 (unknown origin) using Ac-peptide as substrate preincubated for 15 mins followed by substrate addition by fluorescence assay
Chain of Histone deacetylase 5 (Q9UQL6 whole entry): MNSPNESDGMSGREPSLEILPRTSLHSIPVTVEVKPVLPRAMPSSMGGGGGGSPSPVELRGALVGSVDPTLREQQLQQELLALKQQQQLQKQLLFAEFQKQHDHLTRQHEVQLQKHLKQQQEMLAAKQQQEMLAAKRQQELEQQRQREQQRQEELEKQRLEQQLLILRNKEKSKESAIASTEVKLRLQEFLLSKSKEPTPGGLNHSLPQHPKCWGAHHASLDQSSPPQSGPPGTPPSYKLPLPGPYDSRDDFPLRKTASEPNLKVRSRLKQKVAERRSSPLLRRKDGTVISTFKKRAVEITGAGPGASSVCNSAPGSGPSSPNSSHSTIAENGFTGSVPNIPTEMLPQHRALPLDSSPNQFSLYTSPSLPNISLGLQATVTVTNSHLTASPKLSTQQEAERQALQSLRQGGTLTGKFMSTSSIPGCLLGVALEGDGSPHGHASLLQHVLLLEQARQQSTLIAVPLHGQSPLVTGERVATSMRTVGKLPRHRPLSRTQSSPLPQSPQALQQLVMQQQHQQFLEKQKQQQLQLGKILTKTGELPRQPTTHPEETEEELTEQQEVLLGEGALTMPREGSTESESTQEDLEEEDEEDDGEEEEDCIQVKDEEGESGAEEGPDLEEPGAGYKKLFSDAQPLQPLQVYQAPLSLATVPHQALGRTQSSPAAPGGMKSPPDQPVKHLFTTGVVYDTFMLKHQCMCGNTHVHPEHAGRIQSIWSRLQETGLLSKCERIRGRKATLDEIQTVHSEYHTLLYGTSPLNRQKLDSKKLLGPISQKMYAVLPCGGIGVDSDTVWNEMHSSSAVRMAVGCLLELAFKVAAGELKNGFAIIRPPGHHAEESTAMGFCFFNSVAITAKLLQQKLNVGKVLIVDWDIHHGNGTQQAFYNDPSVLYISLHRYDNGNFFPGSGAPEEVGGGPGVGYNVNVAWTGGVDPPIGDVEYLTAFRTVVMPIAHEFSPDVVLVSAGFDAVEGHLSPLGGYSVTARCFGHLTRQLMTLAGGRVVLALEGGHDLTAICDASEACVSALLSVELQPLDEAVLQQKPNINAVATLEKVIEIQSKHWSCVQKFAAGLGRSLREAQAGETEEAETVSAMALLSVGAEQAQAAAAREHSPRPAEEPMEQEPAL

[4] = target: T3, Protein deacetylase HDAC6 (Homo sapiens, UniProt Q9UBN7); assay: Inhibition of HDAC6 (unknown origin) using Ac-peptide as substrate preincubated for 15 mins followed by substrate addition by fluorescence assay
T3 sequence (Q9UBN7 whole entry): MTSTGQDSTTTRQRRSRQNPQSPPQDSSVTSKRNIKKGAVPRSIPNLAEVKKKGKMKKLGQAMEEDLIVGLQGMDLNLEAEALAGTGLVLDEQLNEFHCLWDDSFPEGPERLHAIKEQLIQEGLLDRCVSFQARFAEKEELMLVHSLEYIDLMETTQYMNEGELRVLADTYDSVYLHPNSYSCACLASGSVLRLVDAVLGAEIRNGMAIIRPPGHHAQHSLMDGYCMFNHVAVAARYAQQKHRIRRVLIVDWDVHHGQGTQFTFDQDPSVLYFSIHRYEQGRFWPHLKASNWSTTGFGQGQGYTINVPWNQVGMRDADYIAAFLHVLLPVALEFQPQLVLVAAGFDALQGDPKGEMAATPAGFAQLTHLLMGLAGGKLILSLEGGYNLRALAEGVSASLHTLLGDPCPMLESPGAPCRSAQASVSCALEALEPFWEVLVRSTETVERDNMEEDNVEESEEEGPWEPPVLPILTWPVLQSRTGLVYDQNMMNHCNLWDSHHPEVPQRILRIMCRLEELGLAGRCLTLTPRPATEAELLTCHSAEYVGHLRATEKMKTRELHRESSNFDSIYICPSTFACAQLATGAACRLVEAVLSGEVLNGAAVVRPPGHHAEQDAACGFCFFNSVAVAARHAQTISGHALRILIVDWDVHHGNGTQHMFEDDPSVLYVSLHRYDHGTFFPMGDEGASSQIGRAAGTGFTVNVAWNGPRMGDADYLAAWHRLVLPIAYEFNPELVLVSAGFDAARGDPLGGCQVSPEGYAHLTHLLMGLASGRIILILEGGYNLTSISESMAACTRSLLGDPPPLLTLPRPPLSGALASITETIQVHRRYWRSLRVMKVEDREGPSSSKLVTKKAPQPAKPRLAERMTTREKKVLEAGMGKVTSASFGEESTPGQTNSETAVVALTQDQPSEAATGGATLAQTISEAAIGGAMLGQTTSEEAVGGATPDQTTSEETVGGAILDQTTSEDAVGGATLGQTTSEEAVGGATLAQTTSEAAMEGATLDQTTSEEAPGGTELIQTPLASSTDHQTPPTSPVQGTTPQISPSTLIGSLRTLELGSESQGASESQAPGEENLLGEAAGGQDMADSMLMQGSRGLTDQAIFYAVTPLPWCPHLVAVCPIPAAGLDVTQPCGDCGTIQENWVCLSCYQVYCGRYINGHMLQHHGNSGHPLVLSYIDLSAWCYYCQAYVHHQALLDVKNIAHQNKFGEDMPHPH

MGC-803 [5] = assay: Induction of apoptosis in human MGC-803 cells assessed as apoptotic cells at 5 uM incubated for 48 hrs by annexin V-FITC and PI staining based flowcytometry analysis (Rvb =4.3 %); format: functional
CYP2C9 = CYP2C9 (Homo sapiens, UniProt P11712); assay: in vitro; conditions: probe diclofenac
Chain of CYP2C9 (P11712 whole entry): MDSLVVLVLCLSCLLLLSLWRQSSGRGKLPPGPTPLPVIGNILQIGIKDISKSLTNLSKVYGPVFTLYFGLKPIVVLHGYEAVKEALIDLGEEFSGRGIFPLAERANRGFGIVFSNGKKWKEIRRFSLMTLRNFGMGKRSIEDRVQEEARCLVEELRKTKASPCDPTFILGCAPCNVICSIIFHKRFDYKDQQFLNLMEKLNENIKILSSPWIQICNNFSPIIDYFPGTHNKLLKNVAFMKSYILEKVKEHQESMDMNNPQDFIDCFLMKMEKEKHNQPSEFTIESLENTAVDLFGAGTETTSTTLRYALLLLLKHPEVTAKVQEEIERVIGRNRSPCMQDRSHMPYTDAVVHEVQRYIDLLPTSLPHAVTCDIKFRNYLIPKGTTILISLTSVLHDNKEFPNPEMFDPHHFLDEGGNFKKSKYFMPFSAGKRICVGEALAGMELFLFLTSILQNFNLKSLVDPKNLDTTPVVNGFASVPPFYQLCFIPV

MGC-803 [6] = assay: Antiproliferative activity against human MGC-803 cells assessed as reduction in cell viability at 10 uM after 72 hrs by CellTiter-Glo assay; format: functional
Histone deacetylase 2 = Histone deacetylase 2 (Homo sapiens, UniProt Q92769)
Chain of Histone deacetylase 2 (Q92769 whole entry): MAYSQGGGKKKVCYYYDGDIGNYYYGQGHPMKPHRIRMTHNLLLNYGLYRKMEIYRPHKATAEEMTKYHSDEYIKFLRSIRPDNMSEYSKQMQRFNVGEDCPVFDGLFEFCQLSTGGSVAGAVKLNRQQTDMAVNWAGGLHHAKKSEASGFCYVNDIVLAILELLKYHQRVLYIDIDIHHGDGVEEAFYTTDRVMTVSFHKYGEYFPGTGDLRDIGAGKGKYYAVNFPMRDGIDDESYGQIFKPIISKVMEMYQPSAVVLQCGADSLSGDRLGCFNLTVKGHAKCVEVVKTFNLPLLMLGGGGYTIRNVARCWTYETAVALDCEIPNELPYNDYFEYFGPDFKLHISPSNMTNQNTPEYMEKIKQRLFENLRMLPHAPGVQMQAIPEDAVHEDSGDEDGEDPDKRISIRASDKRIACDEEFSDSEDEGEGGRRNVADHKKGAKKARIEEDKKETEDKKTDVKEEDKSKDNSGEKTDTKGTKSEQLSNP

Row | Compound | IC50 (HCT-116) | IC50 (MGC-803 [2]) | IC50 [3] | IC50 (Histone deacetylase 1) | IC50 (Histone deacetylase 5) | IC50 [4] | other results
1 | C/C(=N\NC(=O)c1cccc(S(=O)(=O)N2CCOCC2)c1)c1cc(Cl)ccc1O | – | – | – | – | – | – | IC50 (AGS): 6190 nM; IC50 (BGC-823): 8080 nM; IC50 (MKN-1): 8980 nM; IC50 (MKN-45): 26700 nM; IC50 (NCI-N87): 10500 nM; IC50 (SNU1): 8030 nM
2 | O=C(NO)c1ccc(/C=C/c2cncc(-c3ccc(C(F)(F)F)cc3)c2)cc1 | > 10000 nM | > 10000 nM | – | – | – | – | inhibition [1]: 5.6%
3 | O=c1cc(-c2ccccc2)oc2c1ccc1ccccc12 [ALPHA-NAPHTHOFLAVONE] | – | – | – | – | – | – | inhibition at 0.2 µM (CYP1A2): 90.9%
4 | O=C(NO)c1ccc(/C=C/c2ccnc(-c3cccc(O)c3)c2)cc1 | 1610 nM | 2100 nM | 1830 nM | 290 nM | > 10000 nM | 19 nM | –
5 | O=C(NO)c1ccc(/C=C/c2cccc(-c3cc(F)ccc3O)c2)cc1 | > 10000 nM | > 10000 nM | 3510 nM | 2120 nM | > 10000 nM | 240 nM | –
6 | N[C@H]1CC[C@H](N[C@@H]2C[C@H]2c2ccccc2)CC1 | – | – | – | – | – | – | IC50 (AGS): > 50000 nM; IC50 (BGC-823): > 50000 nM; IC50 (MKN-1): > 50000 nM; IC50 (MKN-45): > 50000 nM; IC50 (NCI-N87): > 50000 nM; IC50 (SNU1): > 50000 nM
7 | O=C(NO)c1ccc(/C=C/c2ccnc(-c3ccc(F)cc3)c2)cc1 | > 10000 nM | > 10000 nM | – | – | – | – | inhibition [1]: 21.2%
8 | O=C(NO)c1ccc(/C=C/c2cc(-c3ccc(C(F)(F)F)cc3)ncc2F)cc1 | > 10000 nM | > 10000 nM | – | 2950 nM | – | – | inhibition [1]: 5.6%
9 | O=C(NO)c1ccc(/C=C/c2ccncc2)cc1 | 3910 nM | 3930 nM | 850 nM | 630 nM | > 10000 nM | 130 nM | –
10 | Cc1ccc(-c2cc(/C=C/c3ccc(C(=O)NO)cc3)ccn2)cc1 | 2390 nM | 1910 nM | 2700 nM | 960 nM | > 10000 nM | 150 nM | –
11 | Cc1ccc(-c2cncc(/C=C/c3ccc(C(=O)NO)cc3)c2)cc1 | > 10000 nM | > 10000 nM | – | 43600 nM | – | – | inhibition [1]: 29.8%
12 | O=C(NO)c1ccc(/C=C/c2ccnc(Br)c2)cc1 | > 10000 nM | > 10000 nM | 1020 nM | 3660 nM | > 10000 nM | 320 nM | –
13 | O=C(CCCCCCC(=O)Nc1ccccc1)NO [VORINOSTAT] | 1850 nM | 1540 nM | – | – | – | – | Activity (MGC-803 [5]): 73.8%
14 | O=C(NO)c1ccc(/C=C/c2cccc(-c3cccc(O)c3)c2)cc1 | > 10000 nM | 8820 nM | 3650 nM | 1240 nM | > 10000 nM | 200 nM | –
15 | O=C(NO)c1ccc(/C=C/c2ccnc(-c3cc(F)ccc3O)c2)cc1 | 2040 nM | 1920 nM | 2200 nM | 1140 nM | 9340 nM | 130 nM | –
16 | O=C(/C=C/c1ccc(/C=C/c2ccnc(-c3ccccc3O)c2)cc1)NO | > 10000 nM | > 10000 nM | – | 470 nM | – | – | inhibition [1]: 22.9%

Row | Compound | IC50 (HCT-116) | IC50 (MGC-803 [2]) | IC50 [3] | IC50 (Histone deacetylase 1) | IC50 (Histone deacetylase 5) | IC50 [4] | other results
17 | COc1ccc(F)cc1-c1cncc(/C=C/c2ccc(C(=O)NO)cc2)c1 | 3410 nM | 3360 nM | 1600 nM | 670 nM | > 10000 nM | 93 nM | –
18 | COc1ccc(-c2cc(/C=C/c3ccc(C(=O)NO)cc3)ccn2)cc1 | 3560 nM | 3510 nM | 1900 nM | 690 nM | > 10000 nM | 110 nM | –
19 | Cc1ccc(-c2cc(/C=C/c3ccc(C(=O)NO)cc3)c(F)cn2)cc1 | > 10000 nM | > 10000 nM | – | 1180 nM | – | – | inhibition [1]: 20.7%
20 | Cc1ccc(-c2cncc(/C=C/c3ccc(C(=O)NO)cc3)c2)c(F)c1 | 2990 nM | 2240 nM | 3060 nM | 1070 nM | > 10000 nM | 150 nM | –
21 | O=C(NO)c1ccc(/C=C/c2ccnc(-c3cccc(CO)c3)c2)cc1 | 1700 nM | 1740 nM | 1140 nM | 280 nM | > 10000 nM | 34 nM | –
22 | COc1ccccc1-c1cc(/C=C/c2ccc(C(=O)NO)cc2)ccn1 | 8440 nM | 6350 nM | 1070 nM | 1040 nM | > 10000 nM | 28 nM | –
23 | O=C(NO)c1ccc(/C=C/c2cncc(-c3ccccc3O)c2)cc1 | 4680 nM | 5460 nM | 510 nM | 3370 nM | > 10000 nM | 13 nM | –
24 | Nc1ccc(S(=O)(=O)Nc2ccnn2-c2ccccc2)cc1 [SULFAPHENAZOLE] | – | – | – | – | – | – | inhibition at 1 µM (CYP2C9): 79.9%
25 | O=C(NO)c1ccc(/C=C/c2ccnc(-c3cccnc3)c2)cc1 | 5140 nM | 4550 nM | 1370 nM | 580 nM | > 10000 nM | 14 nM | –
26 | Cc1ccc(-c2cc(/C=C/c3ccc(C(=O)NO)cc3)c(F)cn2)c(F)c1 | 1670 nM | 2510 nM | – | 880 nM | – | – | inhibition [1]: 55.2%
27 | N/C(=N\O)c1cccc(/C=C/c2ccnc(-c3cc(F)ccc3O)c2)c1 | – | – | – | – | – | – | inhibition at 10 µM (MGC-803 [6]): 35.3%
28 | O=C(NO)c1ccc(/C=C/c2cccc(-c3ccccc3O)c2)cc1 | 4230 nM | 5990 nM | 1950 nM | 930 nM | > 10000 nM | 180 nM | –
29 | O=C(NO)c1ccc(/C=C/c2ccnc(-c3ccc(C(F)(F)F)cc3)c2)cc1 | > 10000 nM | > 10000 nM | – | 4840 nM | – | – | inhibition [1]: 33%
30 | O=C(NO)c1cccc(/C=C/c2ccnc(-c3cc(F)ccc3O)c2)c1 | 3890 nM | 2710 nM | – | 1510 nM | > 10000 nM | 400 nM | IC50 (Histone deacetylase 2): 2060 nM
31 | O=C(NO)c1cccc(/C=C/c2ccnc(-c3ccccc3O)c2)c1 | 3360 nM | 2810 nM | 2260 nM | 1470 nM | > 10000 nM | 390 nM | IC50 (Histone deacetylase 2): 1870 nM
32 | O=C(NO)c1ccc(/C=C/c2ccnc(-c3ccsc3)c2)cc1 | 1910 nM | 3680 nM | 2030 nM | 210 nM | > 10000 nM | 54 nM | –
